Assay results reported in ChEMBL document CHEMBL1177853, “Synthesis and pharmacological evaluation of novel substituted 9-deazaxanthines as A2B receptor antagonists” (Eur J Med Chem, 2010).

Columns and labels:
Adenosine receptor A2b = molecular target: T1, Adenosine receptor A2b (Homo sapiens, UniProt P29275); test: Displacement of [3H]DPCPX from human recombinant adenosine A2B receptor expressed in HEK293 cells after 30 mins; assay type: cell-based
T1 sequence (P29275 whole entry): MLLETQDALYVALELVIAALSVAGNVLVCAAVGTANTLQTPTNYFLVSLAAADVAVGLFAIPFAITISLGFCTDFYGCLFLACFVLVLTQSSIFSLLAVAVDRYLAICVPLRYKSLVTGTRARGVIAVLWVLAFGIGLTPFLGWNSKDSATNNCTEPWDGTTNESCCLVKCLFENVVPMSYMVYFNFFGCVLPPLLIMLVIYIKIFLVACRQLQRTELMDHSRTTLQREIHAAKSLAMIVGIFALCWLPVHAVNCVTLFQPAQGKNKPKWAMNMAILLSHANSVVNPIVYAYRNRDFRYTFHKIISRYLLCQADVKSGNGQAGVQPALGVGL

Adenosine receptor A1 = molecular target: T2, Adenosine receptor A1 (Homo sapiens, UniProt P30542); test: Displacement of [3H]DPCPX from human recombinant adenosine A1 receptor expressed in CHO-A1 cells after 60 mins; assay type: cell-based
T2 sequence (P30542 whole entry): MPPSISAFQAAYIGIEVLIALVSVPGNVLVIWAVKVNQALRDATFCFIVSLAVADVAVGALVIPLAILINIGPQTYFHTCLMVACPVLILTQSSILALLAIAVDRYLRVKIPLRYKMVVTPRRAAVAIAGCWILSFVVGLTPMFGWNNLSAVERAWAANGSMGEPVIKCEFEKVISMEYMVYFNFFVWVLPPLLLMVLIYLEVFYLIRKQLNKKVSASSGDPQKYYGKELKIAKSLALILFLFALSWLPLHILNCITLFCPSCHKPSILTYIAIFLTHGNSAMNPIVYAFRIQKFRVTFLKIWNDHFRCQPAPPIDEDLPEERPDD

Homo sapiens [1] = species on record: Homo sapiens; test: Selectivity ratio of Ki for human recombinant adenosine A2B receptor to Ki for human recombinant adenosine A1 receptor
[2] = molecular target: T3, Adenosine receptor A3 (Homo sapiens) (UniProt P0DMS8); test: Displacement of [3H]NECA from human recombinant adenosine A3 receptor expressed in human HeLa cells at 1 uM after 180 mins by scintillation counting; assay type: cell-based
T3 sequence (whole entry): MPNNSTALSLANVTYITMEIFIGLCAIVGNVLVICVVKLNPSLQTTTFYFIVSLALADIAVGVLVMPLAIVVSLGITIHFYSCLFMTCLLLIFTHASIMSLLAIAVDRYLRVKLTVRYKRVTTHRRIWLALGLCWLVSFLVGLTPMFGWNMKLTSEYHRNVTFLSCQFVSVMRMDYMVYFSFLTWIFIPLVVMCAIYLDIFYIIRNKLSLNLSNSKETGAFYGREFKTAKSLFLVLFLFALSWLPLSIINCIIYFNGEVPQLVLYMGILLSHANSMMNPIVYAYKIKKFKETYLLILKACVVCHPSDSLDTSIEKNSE

Homo sapiens [3] = species on record: Homo sapiens; test: Selectivity ratio of Ki for human recombinant adenosine A2B receptor to Ki for human recombinant adenosine A2A receptor
Adenosine receptor A2a [4] = molecular target: T4, Adenosine receptor A2a (Homo sapiens, UniProt P29274); test: Displacement of [3H]ZM241385 from human recombinant adenosine A2A receptor expressed in human HeLa cells after 30 mins; assay type: cell-based
[5] = molecular target: T5, Adenosine receptor A1 (Homo sapiens) (UniProt P30542); test: Displacement of [3H]DPCPX from human recombinant adenosine A1 receptor expressed in CHO-A1 cells at 1 uM after 60 mins; assay type: cell-based
T5 sequence (whole entry): T2 sequence (P30542 whole entry)

Adenosine receptor A2a [6] = molecular target: T4, Adenosine receptor A2a; test: Displacement of [3H]ZM241385 from human recombinant adenosine A2A receptor expressed in human HeLa cells at 1 uM after 30 mins; assay type: cell-based
[7] = molecular target: T6, Adenosine receptor A2b (Homo sapiens) (UniProt P29275); test: Displacement of [3H]DPCPX from human recombinant adenosine A2B receptor expressed in HEK293 cells at 1 uM after 30 mins; assay type: cell-based
T6 sequence (whole entry): T1 sequence (P29275 whole entry)

T4 sequence (P29274 whole entry): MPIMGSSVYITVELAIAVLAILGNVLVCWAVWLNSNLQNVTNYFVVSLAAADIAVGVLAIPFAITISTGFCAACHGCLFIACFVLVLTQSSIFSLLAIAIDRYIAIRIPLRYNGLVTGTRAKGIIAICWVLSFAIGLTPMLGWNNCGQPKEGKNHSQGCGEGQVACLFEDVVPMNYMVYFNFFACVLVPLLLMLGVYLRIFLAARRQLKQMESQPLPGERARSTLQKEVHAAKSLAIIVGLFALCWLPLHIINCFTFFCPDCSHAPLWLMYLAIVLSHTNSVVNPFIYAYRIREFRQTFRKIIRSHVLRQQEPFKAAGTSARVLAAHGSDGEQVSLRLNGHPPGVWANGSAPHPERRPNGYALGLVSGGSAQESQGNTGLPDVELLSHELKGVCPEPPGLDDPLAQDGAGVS

Row | SMILES | Ki (Adenosine receptor A2b) | Ki (Adenosine receptor A1) | Ratio pKi (Homo sapiens [1]) | inhibition [2] | Ratio pKi (Homo sapiens [3]) | Ki (Adenosine receptor A2a [4]) | inhibition [5] | inhibition (Adenosine receptor A2a [6]) | inhibition [7]
1 | CCCn1c(=O)[nH]c2cc(-c3ccc(OCC(=O)Nc4ccc(F)cc4)cc3)[nH]c2c1=O | 2.34 nM | 75.9 nM | 32.4 | 2% | 2750 | 6460 nM | – | – | –
2 | COc1cc(OCc2nc(-c3ccc(Br)cc3)no2)ccc1-c1cc2c([nH]1)c(=O)n(C)c(=O)n2C | 40.7 nM | 182 nM | – | 3% | 17.4 | 708 nM | 36% | – | –
3 | CCCn1c(=O)[nH]c(=O)c2[nH]c(-c3ccc(OCC(=O)Nc4ccc(Br)cc4)cc3)cc21 | 21.9 nM | – | – | 28% | – | – | 41% | 22% | –
4 | CCCn1c(=O)[nH]c(=O)c2[nH]c(-c3ccc(OCC(=O)N4CCN(c5ccccc5)CC4)cc3)cc21 | 115 nM | – | – | 15% | – | – | 23% | 33% | –
5 | CCCn1c(=O)[nH]c(=O)c2[nH]c(-c3ccc(OCC(=O)Nc4ccccc4)cc3)cc21 | 1050 nM | – | – | 1% | – | – | 0.5% | 17% | –
6 | CCCn1c(=O)c2c(cc(-c3ccc(OCC(=O)Nc4ccc(F)cc4)cc3)n2C)n(C)c1=O | 30.9 nM | – | 5.89 | 6% | – | – | – | 11% | –
7 | CCCn1c(=O)c2c(cc(-c3ccc(OCC(=O)N4CCN(c5ccccc5)CC4)cc3)n2C)n(CCC)c1=O | – | – | – | 2% | – | – | 22% | 22% | 36%
8 | CCCn1c(=O)[nH]c2cc(-c3ccc(OCc4nc(-c5ccc(Br)cc5)no4)cc3)[nH]c2c1=O | 31.6 nM | – | – | 2% | – | – | 21% | 11% | –
9 | CCCn1c(=O)c2c(cc(-c3ccc(OCC(=O)N4CCc5ccccc5C4)cc3)n2C)n(CCC)c1=O | 97.7 nM | – | – | 9% | – | – | 19% | 29% | –
10 | CCCn1c(=O)c2c(cc(-c3ccc(OCC(=O)Nc4ccc(F)cc4)cc3)n2C)n(CCC)c1=O | – | – | – | 1% | – | – | 9% | 15% | 20%
11 | CCCn1c(=O)[nH]c(=O)c2[nH]c(-c3ccc(OCC(=O)N4CCc5ccccc5C4)cc3)cc21 | 79.4 nM | – | – | 1% | – | – | 9% | 12% | –
12 | CCCn1c(=O)[nH]c2cc(-c3ccc(OCC(=O)Nc4ccc(Br)cc4)cc3)[nH]c2c1=O | 3.55 nM | 1.74 nM | 0.49 | 14% | – | – | – | 43% | –
13 | CCCn1c(=O)[nH]c(=O)c2[nH]c(-c3ccc(OCC(=O)Nc4ccc(F)cc4)cc3)cc21 | 100 nM | – | – | 3% | – | – | 2% | 36% | –
